Data from the OPERA property sets (Mansouri et al. 2018).

conditions: not given

Row | Structure (SMILES) | melting point | boiling point | log10 Henry constant (atm·m³/mol) | log10 vapour pressure (mmHg) | log10 Koc (L/kg) | ready biodegradability | log10 biodegradation half-life (days) | log10 Koa
1 | CC(C)(C)[C@H](O)/C(=C\c1ccc(Cl)cc1)n1cncn1 | 153 °C | – | – | – | – | – | – | –
2 | CC(F)(F)Cl | -131 °C | -9.7 °C | -1.23 | 3.41 | – | – | – | –
3 | CCCCC(C)(C)CC | – | 137 °C | – | – | – | – | – | –
4 | O=C1OC(=Cc2ccccc2)c2ccccc21 | 100 °C | – | – | – | – | – | – | –
5 | COc1cc(CO)ccc1O | 115 °C | – | – | – | – | – | – | –
6 | O/N=C\c1ccccc1 | 36.5 °C | 200 °C | – | – | – | – | – | –
7 | C1CCCNCCC1 | 29 °C | – | – | – | – | – | – | –
8 | NC(=O)c1c(Cl)cccc1Cl | 198 °C | – | – | – | 0.53 | not readily biodegradable | – | –
9 | CCS(=O)(=O)c1ccccc1 | 42 °C | – | – | – | – | – | – | –
10 | CCNC | – | 36.5 °C | – | – | – | – | – | –
11 | CCNCCN | – | 129 °C | – | – | – | – | – | –
12 | O=C(O)Cc1ccc(F)cc1 | 86 °C | – | – | – | – | – | – | –
13 | CCCCOC(=O)C1=CC(=O)CC(C)(C)O1 | – | 263 °C | – | -3.52 | – | – | – | –
14 | c1ccc2c(c1)ccc1nc3c(ccc4ccccc43)cc12 | 226 °C | – | – | – | – | – | – | –
15 | NNC(=O)NN | 154 °C | – | – | – | – | – | – | –
16 | CC(=O)Oc1ccccc1[N+](=O)[O-] | 40.5 °C | – | – | -2.66 | – | – | – | –
17 | NC(=O)CCl | 121 °C | 225 °C | – | – | – | – | – | –
18 | Cc1ccc(C)n1C | – | 171 °C | – | – | – | – | – | –
19 | C=CCOC(=O)CCC | -80 °C | 142 °C | – | – | – | – | – | –
20 | C#C[C@]1(O)CC[C@H]2[C@@H]3CCC4=CCCC[C@@H]4[C@H]3C(=C)C[C@@]21CC | 110 °C | – | – | – | – | – | – | –
21 | O=C(O)/C=C\C(=O)O | 130 °C | – | – | – | – | readily biodegradable | – | –

Row | Structure (SMILES) | melting point | boiling point | log10 Henry constant (atm·m³/mol) | log10 vapour pressure (mmHg) | log10 Koc (L/kg) | ready biodegradability | log10 biodegradation half-life (days) | log10 Koa
22 | CC(CCO)CC(C)(C)C (stereo not drawn) | – | 194 °C | – | -0.523 | – | not readily biodegradable | – | –
23 | CCOC(CC)OCC | – | 123 °C | – | – | – | – | – | –
24 | CC1=CCC2C(C)(C)CCC[C@]2(C)[C@@]12CC[C@](C)(CC(=O)O)O2 (stereo partly drawn) | 100 °C | – | – | – | – | – | – | –
25 | Nc1ccc(-c2ccccc2)cc1 | 53.5 °C | 302 °C | – | – | – | – | – | –
26 | COCCc1ccccn1 | – | 203 °C | – | – | – | – | – | –
27 | CCCCCCCCCCCCCCCCCC | 28.2 °C | 316 °C | – | -3.47 | – | readily biodegradable | 1.32 | –
28 | FCCCBr | – | 101 °C | – | – | – | – | – | –
29 | CCOC(=O)CCCCl | – | 184 °C | – | – | – | – | – | –
30 | Cn1cncc1C[C@H]1COC(=O)[C@@H]1[C@@H](O)c1ccccc1 | 179 °C | – | – | – | – | – | – | –
31 | NCCCNCCCCNCCCN | 29 °C | – | – | – | – | – | – | –
32 | CC(=O)NCC1(c2ccccc2)CCN(CCCC(=O)c2ccc(F)cc2)CC1 | 98.5 °C | – | – | – | – | – | – | –
33 | ClC1=C(Cl)C2(Cl)C3C(Cl)C(Cl)C(Cl)C3C1(Cl)C2(Cl)Cl (stereo not drawn) | – | – | – | -6.02 | – | – | – | 9.43
34 | O=[N+]([O-])c1ccccc1CCO | 2 °C | 267 °C | – | – | – | – | – | –
35 | ClC(Cl)Br | -57 °C | 90 °C | -2.67 | – | 1.78 | readily biodegradable | – | –
36 | Fc1ccc(C(c2ccc(F)cc2)C(Cl)(Cl)Cl)cc1 | 44.5 °C | – | – | – | – | – | – | –
37 | C#C[C@]1(O)CC[C@H]2[C@@H]3CCc4cc(O)ccc4[C@H]3[C@@H](OC)C[C@@]21C | 280 °C | – | – | – | – | – | – | –
38 | CN(C)[C@@H]1C(O)=C(C(N)=O)C(=O)[C@@]2(O)C(O)=C3C(=O)c4c(O)cccc4[C@@](C)(O)[C@H]3C[C@@H]12.Cl | 222 °C | – | – | – | – | – | – | –
39 | O=C(O)CS(=O)(=O)CC(=O)O | 182 °C | – | – | – | – | – | – | –
40 | CC(=O)c1ccc(C)cc1O | 21 °C | 245 °C | – | – | – | – | – | –
41 | CC(C)C(C(C)C)C(C)C | -81.7 °C | 157 °C | – | – | – | – | – | –
42 | FC1(F)C(Cl)=C(Cl)C(F)(F)C(F)(F)C1(F)F | -70 °C | 113 °C | – | – | – | – | – | –

same assay, conditions: fish

Row | Structure (SMILES) | log10 BCF | log10 biotransformation half-life (days)
43 | FC(F)(F)c1ccc(Cl)c(Cl)c1 | 3.18 | 1.52
44 | c1ccc2c(c1)ccc1nc3c(ccc4ccccc43)cc12 | 2.03 | -0.14
